Measurements: article PMC6694155, “PTPσ inhibitors promote hematopoietic stem cell regeneration” (Nature Communications, 2019)
“And” between values parts separate entries of the source, which are not always exact repeats. Equal values may be shown once.

Experiments:
BM KSL cells = test: Cell cycle analysis (Ki67/7AAD) of BM KSL cells; format: cell-based, mouse; parameters: G0 / G1 / G2SM: unit not given here
Method: Eight- to ten-week-old female C57BL/6 mice were irradiated with 500 cGy TBI followed by subcutaneous injections of 5 mg/kg DJ001 or vehicle, or 5 mg/kg DJ001 plus 40 mg/kg EHT1864. Twenty four hours after irradiation, mice were killed to collect BM cells for Annexin V apoptosis analysis. BM cells were stained with APC-Cy7-conjugated anti-mouse Sca1 (BD Biosciences, #560654, 1:100), PE-conjugated anti-ckit (BD Biosciences, #553355, 1:100), and V450 lineage cocktail (BD Biosciences, #561301, 1:10) antibodies for 30 min at 4 °C. Cells were then resuspended in 1× Annexin V binding buffer and then stained with FITC-conjugated anti-Annexin V antibody (BD Biosciences, #556547,1:50) and 7AAD antibody (BD Biosciences, #559925, 1:40)[68]. For in vitro human BM cell apoptosis assays, isolated human BM CD34^+ cells were plated into 96-well plates and then irradiated with 300 cGy. Immediately after irradiation, cells were treated with 5 μg/mL DJ001 or vehicle for 24 h and then collected for Annexin V cell apoptosis analysis. For cell cycle analysis, BM KSL cells were irradiated at 300 cGy and then treated with 1 μg/mL DJ001 or vehicle for 36 h. Subsequently, cells were resuspended in 200 μL of PBS, fixed with 1 mL of ice-cold fixation solution (0.25% Saponin, 2.5% PFA, 2% fetal calf serum (FCS) in PBS), and incubated for 30 min on ice. Cells were washed in Saponin buffer (0.25% Saponin, 2% FCS in PBS) and resuspended in 200 μL of Saponin buffer containing 20 μL of FITC-conjugated anti-Ki67 antibody (BD Biosciences, #556026, 1:10) and 1 μL of RNase (Qiagen, #19101, 100 mg/mL). After 30 min of incubation, cells were washed in Saponin buffer and resuspended for flow analysis in 200 μL of Saponin buffer containing 5 μL 7AAD (BD Biosciences, #559925, 1:40).

[1] = biological target: T1, DUSP22 (Dual Specificity Phosphatase 22) (Homo sapiens, UniProt Q9NRW4); test: PhosphataseProfiler screen: DUSP22; format: biochemical; settings: replicates
T1 construct: purchased Eurofins Pharma Discovery Services UK
Method: Compound DJ001 was evaluated in a PhosphataseProfiler™ screen at 10 μM and 1 μM (2.7 μg/mL and 0.27 μg/mL) concentrations at Eurofins Pharma Discovery Services UK (Study number UK022-0004033) against a panel of 21 Phosphatases. In each experiment, the respective reference antagonist/agonist was tested directly with DJ001 and the data were compared with historical values determined at Eurofins. DJ001 compound inhibition was calculated as percentage inhibition of the enzymatic activity compared with control.

RAC1-GTP in BM KSL cells = test: RAC1-GTP intracellular flow cytometry of BM KSL cells; format: cell-based, mouse; parameters: Figure 3c: RAC1-GTP in BM KSL cells: unit not given here; settings: for Figure 3c: RAC1-GTP in BM KSL cells: individual replicates
Method: Intracellular flow cytometric analysis was performed on irradiated (300 cGy) or non-irradiated, sorted KSL cells after treatment with 1 μg/mL DJ001 or control (equal volumes of DMSO) for 24 h. At 24 h after irradiation, cells were fixed with 4% PFA for 10 min, followed by permeabilization using 0.25% saponin in PBS. Cells were washed again and stained with antibody at the recommended concentrations for 30 min at RT. Intracellular antibodies and phospho-flow antibodies used were as follows: FITC-conjugated anti-BCL-XL (Abcam, #26148, 1:100), active RAC1-GTP antibody (NewEast Biosciences, #26903, 1:100) and anti-PAK1 (phospho S144) + PAK2 (phospho S141) + PAK3 (phospho S154) antibody (Abcam, #40795, 1:100), and FITC-conjugated goat anti-rabbit IgG H&L (Abcam, #97050, 1:200).

[2] = 36 h following 300 cGy, 1 μg/mL DJ001
[3] = 36 h following 300 cGy, 1 µg/mL DJ001, 6 µg/mL EHT1864, 240 ng/mL SU9516
[4] = cell cycle phase, Supplementary Figure 7h

T1 sequence (Q9NRW4 whole entry, species assumed): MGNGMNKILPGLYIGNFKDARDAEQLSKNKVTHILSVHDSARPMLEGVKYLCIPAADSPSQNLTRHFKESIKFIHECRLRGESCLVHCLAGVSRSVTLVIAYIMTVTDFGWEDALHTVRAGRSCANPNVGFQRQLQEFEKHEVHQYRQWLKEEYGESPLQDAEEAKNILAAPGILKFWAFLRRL

## O=C(/C=C\Nc1cccc([N+](=O)[O-])c1)c1ccccc1 [DJ001, (Z)-3-((3-nitrophenyl)amino)-1-phenylprop-2-en-1-one]
BM KSL cells; 36 h following 300 cGy
  percentage of KSL cells in G2/S/M phase vs control: significantly increased the percentage of KSL cells in G2/S/M phase
BM KSL cells; [2]
  percentages of KSL cells in G0, per replicate (Figure 4a): 10.898% and 7.091% and 6.413% and 9.19% and 8.538% and 7.981% and 5.757%
  percentages of KSL cells in G1, per replicate (Figure 4a): 51.766% and 62.582% and 57.686% and 51.047% and 60.936% and 51.069% and 57.668%
  percentages of KSL cells in G2SM, per replicate (Figure 4a): 36.781% and 29.964% and 35.471% and 38.731% and 30% and 39.75% and 36.236%
BM KSL cells; [3]
  percentages of BM cells in G0, per replicate (Figure 4d bottom left panel): 12% and 10% and 8% and 4% and 11%
  percentages of BM cells in G1, per replicate (Figure 4d bottom center panel): 52% and 54% and 51% and 48%
  percentages of BM cells in G2/S/M, per replicate (Figure 4d bottom right panel): 35% and 40% and 41% and 39%
BM KSL cells; [4]
  G0: 17.593 and 13.329 and 15.794 and 18.75 and 23.139 and 16.263 and 18.5
  G1: 51.409 and 55.557 and 49.648 and 46.611 and 42.434 and 51.122 and 52.817
  G2SM: 27.738 and 29.087 and 32.369 and 30.422 and 28.183 and 29.707 and 25.745
[1]; 0.27 μg/mL DJ001
  Supplementary Figure 1: DUSP22 activity: 107 and 96 (2×)
[1]; 2.7 μg/mL DJ001
  Supplementary Figure 1: DUSP22 activity: 98 and 109 and 100
RAC1-GTP in BM KSL cells; BM KSL cells from Ptprs+/+ mice
  RAC1-GTP levels: rapid increase in RAC1-GTP levels
RAC1-GTP in BM KSL cells; BM KSL cells from Ptprs−/− mice
  RAC1-GTP levels: no change in RAC1-GTP levels
RAC1-GTP in BM KSL cells; Ptprs+/+ cells
  Figure 3c: RAC1-GTP in BM KSL cells: 42 and 37.6 and 37.8 and 37.4 and 37.3
RAC1-GTP in BM KSL cells; Ptprs-/- cells
  Figure 3c: RAC1-GTP in BM KSL cells: 84.6 and 83.8 and 81.9 and 85.5 and 85.6
